# Values quoted from earlier work as cited in patent US20130143829A1, “Topical Combination Formulations of Macrocyclic Lactones with Synthetic Pyrethroids” (priority 2011, published 2013).
# Conditions: in vivo
substance,measurement,value
eprinomectin,Milk to plasma partition ratio,~0.2
